Tests used:
mGluR1 [1] = target: T1, mGluR1 (Rattus norvegicus, UniProt P23385); assay: Small-animal PET with [^11C]ITMM: time-activity curves, radioactive uptake (SUV) in brain regions; format: in vivo; parameters: from tissue; host or cells: living SD rat brain (in vivo PET)
Experimental: Subsequently, a SD rat was secured in a custom-designed chamber and placed in a small-animal PET scanner (Inveon, Siemens Medical Solutions, Knoxville, TN, USA). Body temperature was maintained using a 40°C water circulation system (T/Pump TP401, Gaymar Industries, Orchard Park, NY, USA). A 24-gauge intravenous catheter (Terumo Medical Products, Tokyo, Japan) was placed in the tail vein of the rat for a bolus injection.
A bolus (0.5 mL) of [^11C]ITMM with conventional or ultra-high SA was injected for 10 s via a catheter inserted in the tail vein. Dynamic emission scans in three-dimensional list mode were performed for 90 min (10 s x 12 frames, 20 s x 3 frames, 30 s x 3 frames, 60 s x 3 frames, 150 s x 3 frames, and 300 s x 15 frames). For counting radioactivity, blood samples were manually acquired at intervals of 10 s (0.05 mL for 50 s), 1-min intervals (0.05 mL for 5 min), and then at 10 (0.05 mL), 15 (0.2 mL), 30 (0.3 mL), 60 (0.4 mL), and 90 min (0.5 mL) after the PET scan started. For metabolite analysis, six samples of blood were obtained at 1 (0.02 mL), 5 (0.02 mL), 15 (0.05 mL), 30 (0.1 mL), 60 (0.2 mL), and 90 min (0.3 mL) after the injection. Blood samples were centrifuged at 13,000g at 4°C to separate the plasma. Levels of radioactivity in the whole blood and plasma were counted using a 1480 Wizard auto-gamma scintillation counter (Perkin-Elmer, Waltham, MA, USA). The radioactivity was corrected for decay.
PET dynamic images were reconstructed with filtered back projection using a Hunning filter with a Nyquist cut-off of 0.5 cycle/pixel. PET/MRI fused images were acquired by PMOD version 3.4 (PMOD Technologies, Zurich, Switzerland). To generate the time-activity curves (TACs) of specified brain regions, volumes of interest (VOIs) were drawn encompassing the cerebellum, hippocampus, thalamus, striatum, cingulate cortex, substantia nigra, and pons. The radioactivity was decay-corrected to the injection time and is expressed as the standardized uptake value (SUV), which was normalized to the injected radioactivity and body weight. SUV was calculated according to the following formula: SUV = (radioactivity per milliliter tissue / injected radioactivity) × gram body weight.

mGluR1 [2] = target: T1, mGluR1; parameters: from tissue; host or cells: cerebellum homogenate; method as in PMID 22316010; conditions: affinity for mGluR1; cited from earlier work
[3] = cingulate cortex, conventional SA
[4] = cingulate cortex, ultra-high SA
[5] = substantia nigra, conventional SA
[6] = substantia nigra, ultra-high SA

T1 sequence (P23385 19-1199): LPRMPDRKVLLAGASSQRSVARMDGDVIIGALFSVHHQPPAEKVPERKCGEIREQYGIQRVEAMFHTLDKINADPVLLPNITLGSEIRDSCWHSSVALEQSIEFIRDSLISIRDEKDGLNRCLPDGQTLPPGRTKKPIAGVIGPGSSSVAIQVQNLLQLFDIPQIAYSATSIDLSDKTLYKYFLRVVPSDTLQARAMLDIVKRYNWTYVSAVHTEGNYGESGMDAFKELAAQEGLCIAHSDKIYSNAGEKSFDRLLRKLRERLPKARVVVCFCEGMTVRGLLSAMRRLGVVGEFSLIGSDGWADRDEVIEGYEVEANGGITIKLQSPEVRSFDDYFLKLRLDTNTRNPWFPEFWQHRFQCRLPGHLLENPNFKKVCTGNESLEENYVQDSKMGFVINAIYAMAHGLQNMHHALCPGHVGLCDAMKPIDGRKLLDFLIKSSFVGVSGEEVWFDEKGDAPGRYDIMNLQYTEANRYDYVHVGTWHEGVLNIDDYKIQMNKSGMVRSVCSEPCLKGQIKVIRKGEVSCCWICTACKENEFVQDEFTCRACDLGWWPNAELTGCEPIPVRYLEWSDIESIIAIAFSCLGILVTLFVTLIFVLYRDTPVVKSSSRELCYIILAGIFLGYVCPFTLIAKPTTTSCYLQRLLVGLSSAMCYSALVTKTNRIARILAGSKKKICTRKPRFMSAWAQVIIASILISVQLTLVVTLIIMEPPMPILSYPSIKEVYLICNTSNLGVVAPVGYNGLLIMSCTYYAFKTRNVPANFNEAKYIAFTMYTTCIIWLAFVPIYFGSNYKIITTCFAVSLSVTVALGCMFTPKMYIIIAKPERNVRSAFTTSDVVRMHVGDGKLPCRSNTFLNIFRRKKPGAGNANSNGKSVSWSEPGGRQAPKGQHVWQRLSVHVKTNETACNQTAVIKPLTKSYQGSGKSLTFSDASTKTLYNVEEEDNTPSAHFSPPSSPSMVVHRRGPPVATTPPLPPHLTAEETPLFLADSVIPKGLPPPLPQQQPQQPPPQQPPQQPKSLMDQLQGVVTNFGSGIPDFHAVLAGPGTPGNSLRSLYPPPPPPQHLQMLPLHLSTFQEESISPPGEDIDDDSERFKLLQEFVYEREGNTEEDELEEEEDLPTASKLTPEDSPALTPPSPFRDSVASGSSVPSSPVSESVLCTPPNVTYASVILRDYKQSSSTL

CC(C)Nc1cc(-c2csc(N(C)C(=O)c3ccc(O[11CH3])cc3)n2)ncn1 [[^11C]ITMM, N-[4-[6-(isopropylamino)pyrimidin-4-yl]-1,3-thiazol-2-yl]-4-[^11C]methoxy-N-methyl-benzamide]
AUC (mGluR1 [1]; cerebellum, conventional SA): 243.2 ± 9.2 SUV · min | maximum uptake (mGluR1 [1]; cerebellum, conventional SA): 3.0 SUV | AUC (mGluR1 [1]; cerebellum, ultra-high SA): 269.9 ± 15.8 SUV · min | maximum uptake (mGluR1 [1]; cerebellum, ultra-high SA): 3.4 SUV | AUC (mGluR1 [1]; [3]): 156.9 ± 5.3 SUV · min | maximum uptake (mGluR1 [1]; [3]): 2.0 SUV | AUC (mGluR1 [1]; [4]): 184.7 ± 11.1 SUV · min | maximum uptake (mGluR1 [1]; [4]): 2.3 SUV | AUC (mGluR1 [1]; hippocampus, conventional SA): 160.8 ± 4.6 SUV · min | maximum uptake (mGluR1 [1]; hippocampus, conventional SA): 2.0 SUV | AUC (mGluR1 [1]; hippocampus, ultra-high SA): 180.2 ± 10.9 SUV · min | maximum uptake (mGluR1 [1]; hippocampus, ultra-high SA): 2.2 SUV | AUC (mGluR1 [1]; pons, conventional SA): 56.0 ± 1.6 SUV · min | maximum uptake (mGluR1 [1]; pons, conventional SA): 0.9 SUV | AUC (mGluR1 [1]; pons, ultra-high SA): 62.7 ± 3.6 SUV · min | maximum uptake (mGluR1 [1]; pons, ultra-high SA): 0.9 SUV | AUC (mGluR1 [1]; striatum, conventional SA): 169.7 ± 6.0 SUV · min | maximum uptake (mGluR1 [1]; striatum, conventional SA): 2.1 SUV | AUC (mGluR1 [1]; striatum, ultra-high SA): 197.3 ± 11.1 SUV · min | maximum uptake (mGluR1 [1]; striatum, ultra-high SA): 2.4 SUV | AUC (mGluR1 [1]; [5]): 149.9 ± 6.7 SUV · min | maximum uptake (mGluR1 [1]; [5]): 1.8 SUV | AUC (mGluR1 [1]; [6]): 178.9 ± 10.8 SUV · min | maximum uptake (mGluR1 [1]; [6]): 2.2 SUV | AUC (mGluR1 [1]; thalamus, conventional SA): 188.4 ± 6.9 SUV · min | maximum uptake (mGluR1 [1]; thalamus, conventional SA): 2.3 SUV | AUC (mGluR1 [1]; thalamus, ultra-high SA): 214.2 ± 12.2 SUV · min | maximum uptake (mGluR1 [1]; thalamus, ultra-high SA): 2.6 SUV | delay of peak time of radioactivity (mGluR1 [1]; ultra-high SA compared with conventional SA, brain regions): 4 to 10 min | Ki (mGluR1 [2]): 12.6 nM

— PMC4468202, “Improved Visualization and Specific Binding for Metabotropic Glutamate Receptor Subtype 1 (mGluR1) Using [^11C]ITMM with Ultra-High Specific Activity in Small-Animal PET” (PLoS ONE, 2015)
